Columns and labels:
[1] = cited from earlier work
Protocol: The LC–MS analysis of extracellular ComX also confirmed degradation after reaching a peak during cultivation process, which was also detected by the bioassay (Additional file 1: Figure S2a). Resembling Henkel et al. ([2013]), experiments were performed with respect to (i) autodegradation, (ii) extracellular degradation and (iii) intracellular degradation (Fig. 1), to obtain deeper understanding of the degradation kinetics of ComX. […] Here, an increase in EACSP was initially observed and, after reaching a maximum, a slight downward trend was seen, which was also accompanied by calculated degradation rates. The highest modeled EACSP = 66.3 ∆A/(h·mL) was reached after 20.5 h, which is concomitant to the highest measured degradation rate after 16 h. […] However, to unveil a potential autodegradation effe ... || To allow for this optimization strategy, profound quantitative knowledge must be gathered as an initial step. This was done in the presented study regarding surfactin production and ComX pheromone progression, providing new insights into this crosstalk. Several bioreactor batch fermentations with different initial glucose concentrations were performed to illustrate different lengths of growth phases of B. subtilis DSM 10^ T. Thereby the general progression of ComX activity was consistent for all bioreactor set-ups, regardless of varying experimental set-ups. During exponential growth, an initi ...

PsrfA = details: ref Magnuson et al. [1994], Okada et al. [2005], [2007], Dogsa et al. [2021], cited from earlier work
Protocol: (§1) To allow for this optimization strategy, profound quantitative knowledge must be gathered as an initial step. This was done in the presented study regarding surfactin production and ComX pheromone progression, providing new insights into this crosstalk. Several bioreactor batch fermentations with different initial glucose concentrations were performed to illustrate different lengths of growth phases of B. subtilis DSM 10^ T. Thereby the general progression of ComX activity was consistent for all bioreactor set-ups, regardless of varying experimental set-ups. During exponential growth, an initi ...

[2] = test system: B. subtilis BKK31700 (∆comX); assay: ComX intracellular degradation: ComX deficient strain cultivated in spent medium; assay type: in vitro ADME; details: ComX bioassay, biological duplicates
Protocol: (§2) Due to the high complexity of ComX purification, the pheromone was measured with a bioassay based on the principle provided by Magnuson et al. ([1994]). Thereby, reporter strain CT2 (∆comX::kan; PsrfA-lacZ) can be used as an assay reagent and a ComX-dependent expression of lacZ can be determined by measuring the β-galactosidase activity with the Miller assay (Miller [1972]). The employed bioassay is further in line with a recently published method, provided by Dogsa et al. ([2021]). A detailed description of the working principle and further validation experiments are given in the supplementary information. In brief, a main culture of strain CT2 was inoculated with preculture II to a starting OD600 of 0.1 and incubated for 3 h at 120 rpm and 37 °C. […] Bnk values were measured using the respective sterile cultivation medium instead of sampled cell-free supernatant. The limit of detection (LOD) and limit of quantification (LOQ) was calculated from 20 samples using Eqs. […]
(§3) For autodegradation studies, strain DSM 10^ T was additionally cultivated in 3000 mL shake flasks using MSM with 40 g/L glucose. […] The incubation was performed in biological duplicates for 24 h at 120 rpm and 37 °C and samples were taken regularly and analyzed for OD600, ComX and peptidase activity.

[3] = assay type: physicochemical; details: pH 7
Protocol: as §2, §3

extracellular proteases = assay: ComX extracellular degradation in cell-free supernatant of bioreactor cultivation; assay type: in vitro ADME, B. subtilis DSM 10T; details: spectinomycin 100 µg/mL, incubated 120 rpm, 37 °C, sampled 0-8 h, ComX bioassay, biological duplicates
Protocol: as §2
Cell-free supernatant was obtained from bioreactor cultivation with 40 g/L glucose by two centrifugation steps for 30 min at 4816 g and 4 °C (Heraeus X3R, Thermo Fisher Scientific GmbH, Braunschweig, Germany). […] Samples were taken after t = 0, 1, 2, 3, 4, 6 and 8 h and analyzed for ComX and peptidase activity and the ComX degradation rate in (MU/h) was calculated from the measured data.

[4] = ref Rangarajan and Clarke [2015]; cited from earlier work
Protocol: as §1

In the case of “ADPITRQ WGD [ComX, quorum sensing pheromone of B. subtilis, farnesylated peptide secreted into culture supernatant; not purified, measured in supernatant]”, the “heat stability of ComX (time stable)” value ([1]; at 80 °C, ref Magnuson et al. ([1994])) is listed as 12 h, the “sensitivity of ComX to extracellular proteases” value ([1]; especially serine proteases, ref Spacapan et al. ([2018]) and Magnuson et al. ([1994])) is listed as “sensitive to extracellular proteases” and the “storage time after which a degradation effect was observed” value ([1]; purified ComX, storage, ref Dogsa et al. ([2021])) is listed as 100 days. For the same substance, the “stability of ComX in acidic environments” value ([1]; ref Okada et al. [2007]) was “does not appear to be stable”, the “ComX concentration at saturation of response” value (PsrfA) was “around 10 nM” and the EC50 (PsrfA; read-out: ComX concentration at half maximum response) was 3 to 4 nM. The “ComX activity remaining after 24 h of cultivation (intracellular degradation study)” value ([2]; BKK31700 cells in spent filtered medium of DSM 23778, 4 g/L glucose added, 24 h, 120 rpm, 37 °C) was 103.2 ± 11.4 MU, the “initial ComX activity at t0 (intracellular degradation study)” value ([2]; washed BKK31700 cells resuspended in spent filtered medium of DSM 23778, 4 g/L glucose added) was 96.5 ± 3.0 MU and the “remaining ComX activity after 8 h of incubation (autodegradation study)” value [3] was 251.1 ± 17.1 MU. The “ComX degradation rate (highest)” value (extracellular proteases; cell-free supernatant from bioreactor cultivation 40 g/L glucose taken after approximately 16 h) was 9.2 ± 2.1 MU/h and the ComX degradation rate (extracellular proteases; cell-free supernatant from bioreactor cultivation 40 g/L glucose taken after approximately 35 h) was 8.4 ± 0.5 MU/h.
In the case of surfactin, the “pH at which surfactin precipitation may occur” value [4] is listed as 5.0 to 6.0 pH.
